In patent publication US20230085307A1, “PYRIDAZINONE COMPOUND AND HERBICIDE” (NISSAN CHEMICAL CORPORATION, priority 2019, published 2023):

Key:
persian speedwell [1] = assay: Test Example 4: herbicidal effect by soil treatment (Table 19, symbol R); format: in vivo, Persian speedwell (Veronica persica); conditions: amount of applied herbicide 214 g/ha
Method in brief: (§1)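 Soil-surface application: an emulsion agent diluted with water to the predetermined dose is sprayed uniformly over seeds lying under roughly 1.5 cm of sterilized diluvial soil. Boxes stay in a greenhouse at 25° C. to 30° C. Three weeks later, each species is graded on previously defined criteria.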

Chinese sprangletop = assay: Test Example 3: herbicidal effect by foliage application, Wagner pot (Table 18, symbol D); format: in vivo, chinese sprangletop (Leptochloa chinensis); conditions: 214 g/ha
Method in brief: (§2)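 Plants were sown in alluvial soil held under 0.1–0.5 cm standing water and grown 14 days in a greenhouse at 25–30 °C. An emulsifiable formulation, water-diluted to the set dose, was then sprayed onto the foliage, and effects were scored three weeks later using previously defined criteria.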

barnyard grass [2] = assay: Test Example 4: herbicidal effect by soil treatment (Table 19, symbol H); format: in vivo, barnyard grass (Echinochloa crus-galli); conditions: amount of applied herbicide 214 g/ha
Method in brief: as §1

false cleavers [3] = assay: Test Example 5: herbicidal effect by foliage application, plastic box (Table 20, symbol Q); format: in vivo, false cleavers (Galium spurium); conditions: foliage application, 214 g/ha, three weeks after application
Method in brief: (§3)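 Sow seeds spot-wise in sterilized diluvial soil; cover with ~1.5 cm soil. Grow 14 days in greenhouse, 25° C. to 30° C. Spray foliage with emulsion diluted to predetermined amount. Rate effect after 3 weeks.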

persian speedwell [4] = assay: Test Example 5: herbicidal effect by foliage application, plastic box (Table 20, symbol R); format: in vivo, Persian speedwell (Veronica persica); conditions: foliage application, 214 g/ha, three weeks after application
Method in brief: as §3

lambsquarters [5] = assay: Test Example 5: herbicidal effect by foliage application, plastic box (Table 20, symbol O); format: in vivo, lambsquarters (Chenopodium album); conditions: foliage application, 214 g/ha, three weeks after application
Method in brief: as §3

windgrass [6] = assay: Test Example 4: herbicidal effect by soil treatment (Table 19, symbol L); format: in vivo, windgrass (Apera spica-venti); conditions: amount of applied herbicide 214 g/ha
Method in brief: as §1

directly sowed rice = assay: Test Example 3: effect on crop by foliage application, Wagner pot (Table 18, symbol b); format: in vivo; conditions: 214 g/ha
Method in brief: as §2

lambsquarters [7] = assay: Test Example 4: herbicidal effect by soil treatment (Table 19, symbol O); format: in vivo, lambsquarters (Chenopodium album); conditions: amount of applied herbicide 214 g/ha
Method in brief: as §1

oval-leafed pondweed = assay: Test Example 1: herbicidal activity, application before weed generation under submerged conditions (Table 16, symbol C); format: in vivo, oval-leafed pondweed (Monochoria vaginalis); conditions: amount of applied herbicide 214 g/ha
Method in brief: (§4)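 Alluvial soil was flooded to 4 cm depth, weed seeds were sown mixed and 2.5-leaf rice seedlings were transplanted. On sowing day, the compound's emulsion, diluted in water to a set dose, was applied to the water surface. Plants grew at 25–30 °C and were scored 0–5 after three weeks.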

late watergrass = assay: Test Example 1: herbicidal activity, application before weed generation under submerged conditions (Table 16, symbol A); format: in vivo, late watergrass (Echinochloa oryzicola); conditions: amount of applied herbicide 214 g/ha
Method in brief: as §4

false cleavers [8] = assay: Test Example 4: herbicidal effect by soil treatment (Table 19, symbol Q); format: in vivo, false cleavers (Galium spurium); conditions: amount of applied herbicide 214 g/ha
Method in brief: as §1

barnyard grass [9] = assay: Test Example 3: herbicidal effect by foliage application, Wagner pot (Table 18, symbol H); format: in vivo, barnyard grass (Echinochloa crus-galli); conditions: 214 g/ha
Method in brief: as §2

soybean = assay: Test Example 4: effect on crop by soil treatment (Table 19, symbol d); format: in vivo; conditions: amount of applied herbicide 214 g/ha
Method in brief: as §1

windgrass [10] = assay: Test Example 5: herbicidal effect by foliage application, plastic box (Table 20, symbol L); format: in vivo, windgrass (Apera spica-venti); conditions: foliage application, 214 g/ha, three weeks after application
Method in brief: as §3

green foxtail = assay: Test Example 5: herbicidal effect by foliage application, plastic box (Table 20, symbol G); format: in vivo, green foxtail (Setaria viridis); conditions: foliage application, 214 g/ha, three weeks after application
Method in brief: as §3

rapeseed [11] = assay: Test Example 4: effect on crop by soil treatment (Table 19, symbol g); format: in vivo; conditions: amount of applied herbicide 214 g/ha
Method in brief: as §1

southern crabgrass = assay: Test Example 5: herbicidal effect by foliage application, plastic box (Table 20, symbol F); format: in vivo, southern crabgrass (Digitaria ciliaris); conditions: foliage application, 214 g/ha, three weeks after application
Method in brief: as §3

Italian ryegrass [12] = assay: Test Example 4: herbicidal effect by soil treatment (Table 19, symbol K); format: in vivo, Italian ryegrass (Lolium multiflorum); conditions: amount of applied herbicide 214 g/ha
Method in brief: as §1

Italian ryegrass [13] = assay: Test Example 5: herbicidal effect by foliage application, plastic box (Table 20, symbol K); format: in vivo, Italian ryegrass (Lolium multiflorum); conditions: foliage application, 214 g/ha, three weeks after application
Method in brief: as §3

rapeseed [14] = assay: Test Example 5: effect on crop by foliage application, plastic box (Table 20, symbol g); format: in vivo; conditions: 214 g/ha, three weeks after application
Method in brief: as §3

velvetleaf = assay: Test Example 5: herbicidal effect by foliage application, plastic box (Table 20, symbol M); format: in vivo, velvetleaf (Abutilon theophrasti); conditions: foliage application, 214 g/ha, three weeks after application
Method in brief: as §3

corn = assay: Test Example 4: effect on crop by soil treatment (Table 19, symbol c); format: in vivo; conditions: amount of applied herbicide 214 g/ha
Method in brief: as §1

In the case of COc1ccc2c(-c3c(O)c(C)nn(C)c3=O)c(-c3ccccc3OC)sc2c1 [Compound No. 3-065, 5-hydroxy-4-(6-methoxy-2-(2-methoxyphenyl)benzo[b]thiophen-3-yl)-2,6-dimethylpyridazin-3(2H)-one], the “R: persian speedwell, herbicidal effect grade” value (persian speedwell [1]) is reported as 5 (Herbicidal rate of 90% or more (almost completely withered)), the “herbicidal effect on Chinese sprangletop (D)” value (Chinese sprangletop) is reported as 2 (Herbicidal rate of 20% or more and less than 40%) and the “H: barnyard grass, herbicidal effect grade” value (barnyard grass [2]) is reported as 5 (Herbicidal rate of 90% or more (almost completely withered)). The “Q: false cleavers, herbicidal effect grade” value (false cleavers [3]) was 5 (Herbicidal rate of 90% or more (almost completely withered)), the “R: persian speedwell, herbicidal effect grade” value (persian speedwell [4]) was 5 (Herbicidal rate of 90% or more (almost completely withered)) and the “O: lambsquarters, herbicidal effect grade” value (lambsquarters [5]) was 3 (Herbicidal rate of 40% or more and less than 70%). For the same molecule, the “L: windgrass, herbicidal effect grade” value (windgrass [6]) was 3 (Herbicidal rate of 40% or more and less than 70%), the “effect on directly sowed rice (b)” value (directly sowed rice) was 1 (Herbicidal rate of 5% or more and less than 20%) and the “O: lambsquarters, herbicidal effect grade” value (lambsquarters [7]) was 4 (Herbicidal rate of 70% or more and less than 90%). The “Herbicidal effect, C: oval-leafed pondweed” value (oval-leafed pondweed) was 3 (Herbicidal rate of 40% or more and less than 70%), the “Herbicidal effect, A: late watergrass” value (late watergrass) was 1 (Herbicidal rate of 5% or more and less than 20%) and the “Q: false cleavers, herbicidal effect grade” value (false cleavers [8]) was 4 (Herbicidal rate of 70% or more and less than 90%). For the same molecule, the “herbicidal effect on barnyard grass (H)” value (barnyard grass [9]) was 5 (Herbicidal rate of 90% or more (almost completely withered)), the “d: soybean, effect on crop grade” value (soybean) was 0 (Herbicidal rate of 5% or less (almost no effect)) and the “L: windgrass, herbicidal effect grade” value (windgrass [10]) was 4 (Herbicidal rate of 70% or more and less than 90%). For the same molecule, the “G: green foxtail, herbicidal effect grade” value (green foxtail) was 5 (Herbicidal rate of 90% or more (almost completely withered)), the “g: rapeseed, effect on crop grade” value (rapeseed [11]) was 5 (Herbicidal rate of 90% or more (almost completely withered)) and the “F: southern crabgrass, herbicidal effect grade” value (southern crabgrass) was 4 (Herbicidal rate of 70% or more and less than 90%). For the same molecule, the “K: Italian ryegrass, herbicidal effect grade” value (Italian ryegrass [12]) was 3 (Herbicidal rate of 40% or more and less than 70%), the “K: Italian ryegrass, herbicidal effect grade” value (Italian ryegrass [13]) was 4 (Herbicidal rate of 70% or more and less than 90%) and the “g: rapeseed, effect on crop grade” value (rapeseed [14]) was 5 (Herbicidal rate of 90% or more (almost completely withered)). The “M: velvetleaf, herbicidal effect grade” value (velvetleaf) was 5 (Herbicidal rate of 90% or more (almost completely withered)) and the “c: corn, effect on crop grade” value (corn) was 0 (Herbicidal rate of 5% or less (almost no effect)).
